From patent publication US20150197433A1, “Compositions and methods for treating toilets” (Integrated Chemical Technologies, Inc., priority 2014, published 2015)

Test system: urease enzyme
Experiment: Testing Glycine Hydroxamate: ammonia odor of treated water loaded with urine and fecal matter
Details: for odor of ammonia: 0.04 grams in 200 ml water with bronopol, citric acid, sodium bicarbonate, sulfamic acid, fragrance, approximately 80° F., after 7 days
Protocol: To each of two flask, 200 ml of distilled water was combined with 0.04 grams of bronopol, 0.04 grams of either acetylhydroxamic acid or 0.04 grams of glycine hydroxamate, 0.10 grams of citric acid, 0.023 grams sodium bicarbonate, 0.027 grams of sulfamic acid, and 0.04 grams of mulberry fragrance. To each sample, 9 ml of urine and 1.5 grams of fecal matter was added and swirled.

SMILES: CC(=O)NO [acetylhydroxamic acid, reference compound]
- odor of ammonia: no detectable odor of ammonia

SMILES: NCC(=O)NO [glycine hydroxamate]
- odor of ammonia: no detectable odor of ammonia
- performance compared with acetylhydroxamic acid (under test conditions): comparable to acetylhydroxamic acid
